Among the data in ChEMBL document CHEMBL1146945, “Quaternary salts of 4,3' and 4,4' bis-pyridinium monooximes. Part 2: synthesis and biological activity” (Bioorg Med Chem Lett, 2006) are Activity values, retold here.

Active and inactive are the calls of the source. The calls are words filed in the database; no cut-off is given here.

Assay [1] deals with T1, Acetylcholinesterase (Mus musculus) (UniProt P21836).
T1 sequence (whole entry): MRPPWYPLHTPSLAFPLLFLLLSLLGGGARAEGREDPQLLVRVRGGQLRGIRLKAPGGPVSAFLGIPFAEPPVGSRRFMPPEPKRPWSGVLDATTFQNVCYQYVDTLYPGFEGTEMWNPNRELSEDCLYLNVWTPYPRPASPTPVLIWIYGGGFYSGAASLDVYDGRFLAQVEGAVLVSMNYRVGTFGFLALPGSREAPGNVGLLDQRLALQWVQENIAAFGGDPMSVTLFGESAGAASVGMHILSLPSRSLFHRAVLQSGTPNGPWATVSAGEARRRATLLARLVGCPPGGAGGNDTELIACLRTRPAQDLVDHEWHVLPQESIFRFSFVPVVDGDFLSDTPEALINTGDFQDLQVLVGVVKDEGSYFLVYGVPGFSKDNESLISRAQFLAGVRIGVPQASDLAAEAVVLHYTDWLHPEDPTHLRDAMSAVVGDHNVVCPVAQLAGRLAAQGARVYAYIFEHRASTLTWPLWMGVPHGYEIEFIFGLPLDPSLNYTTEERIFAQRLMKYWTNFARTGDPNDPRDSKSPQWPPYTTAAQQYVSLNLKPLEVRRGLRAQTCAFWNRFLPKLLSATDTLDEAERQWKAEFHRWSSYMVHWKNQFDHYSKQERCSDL
Briefly: Reactivation of TEPP inhibited AChE in mouse brain at 100 uM. Type of assay: functional, tissue-based. Also noted: scale not given: the % may be the effect or the level left.

Assay [2] concerns the target T1, Acetylcholinesterase (Mus musculus). Briefly: Reactivation of TEPP inhibited AChE in mouse brain at 300 uM. Type of assay: functional, tissue-based.
The target is the same in assay [3]. Briefly: Reactivation of TEPP inhibited AChE in mouse brain at 250 uM. Type of assay: functional, tissue-based.
Assay [4] has the same target. Put plainly: Reactivation of TEPP inhibited AChE in mouse brain at 50 uM. Type of assay: functional, tissue-based.
The target is the same in assay [5]. Put plainly: Reactivation of TEPP inhibited AChE in mouse brain at 200 uM. Format: functional, tissue-based.
Assay [6] has the same target. Put plainly: Reactivation of TEPP inhibited AChE in mouse brain at 150 uM. Format: functional, tissue-based.
Assay [7] shares this target. Put plainly: Potentiation of inhibition of AChE by TEPP in mouse brain at 300 uM. Type of assay: functional, tissue-based.
Assay [8] has the same target. Briefly: Reactivation of TEPP inhibited mouse brain AChE at 30 uM. Type of assay: functional. Also noted: scale not given: the % may be the effect or the level left.
The target is the same in assay [9]. Briefly: Potentiation of inhibition of AChE by TEPP in mouse brain at 100 uM. Format: functional, tissue-based.

As to `NC(=O)c1cc[n+](CCCCCCCCC[n+]2ccc(/C=N/O)cc2)cc1`, the result in assay [1], in assay [2], in assay [3], in assay [4], in assay [5] and in [6] was inactive.

Regarding `O/N=C/c1cc[n+](CCCCCCC[n+]2ccc(/C=N/O)cc2)cc1`, the Activity in [1] was 14%; in assay [8], 39%. For the same compound, the result in [7] was Active.

Turning to `O/N=C/c1cc[n+](CCCCCCCCC[n+]2ccc(/C=N/O)cc2)cc1`, the result in assay [1], in assay [2], in assay [3], in [4], in assay [5] and in assay [6] was inactive.

As to `NC(=O)c1cc[n+](CCCCCCC[n+]2ccc(/C=N/O)cc2)cc1`, the result in assay [7] and in [9] was Active. The compound also returned an Activity in assay [8] of 15%.

Take `NC(=O)c1ccc[n+](CCCCCCC[n+]2ccc(/C=N/O)cc2)c1`: the result in [7] and in [9] was Active. Moreover, the Activity in [8] was determined as 23%.

For the compound `O/N=C/c1cc[n+](CCCCCCCC[n+]2ccc(/C=N/O)cc2)cc1`, the outcome in assay [1], in assay [2], in [3], in [4], in [5] and in assay [6] was inactive.

With `NC(=O)c1ccc[n+](CCCCCCCC[n+]2ccc(/C=N/O)cc2)c1`, the result in [1], in [2], in assay [3], in assay [4], in assay [5] and in assay [6] was inactive.

For the compound `NC(=O)c1ccc[n+](CCCCCCCCC[n+]2ccc(/C=N/O)cc2)c1`, the outcome in assay [1], in [2], in [3], in [4], in assay [5] and in assay [6] was inactive.

For the compound `NC(=O)c1cc[n+](CCCCCCCC[n+]2ccc(/C=N/O)cc2)cc1`, the outcome in assay [1], in assay [2], in assay [3], in assay [4], in assay [5] and in [6] was inactive.
